# Reference: the supplement of paper PMC10307832
# Key:
# Assay in all cases: relative viability (nuclei count vs DMSO), 5 days (fraction); higher = more cells survive
# [1] = compound: CC1CC(=O)N(C2=CN=C(N=C2N1C3CCCC3)NC4=C(C=C(C=C4)C(=O)NC5CCN(CC5)C)OC)C [NPK76-II-72-1] + Cc1cc(Nc2cc(N3CCN(C)CC3)nc(Sc3ccc(NC(=O)C4CC4)cc3)n2)n[nH]1 [Tozasertib] (partner 0.1 µM)
# How it was run: (§1)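 Lung cancer cell lines in 1536-well plates got either a single drug or a fixed anchor-drug dose together with five library-drug doses (not always all listed) in √10 steps, by pin tool, on the day after seeding. Nuclei were counted after 5 days, and relative viability is the treated-to-vehicle ratio of nuclei counts. Values are medians of duplicate plates.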
# BI-2536 + Navitoclax = compound: CC[C@@H]1C(=O)N(C)c2cnc(Nc3ccc(C(=O)NC4CCN(C)CC4)cc3OC)nc2N1C1CCCC1 [BI-2536] + CC1(C)CCC(c2ccc(Cl)cc2)=C(CN2CCN(c3ccc(C(=O)NS(=O)(=O)c4ccc(N[C@H](CCN5CCOCC5)CSc5ccccc5)c(S(=O)(=O)C(F)(F)F)c4)cc3)CC2)C1 [Navitoclax] (partner 0.5 µM)
# How it was run: as §1
# BI-2536 + Crizotinib = compound: CC[C@@H]1C(=O)N(C)c2cnc(Nc3ccc(C(=O)NC4CCN(C)CC4)cc3OC)nc2N1C1CCCC1 [BI-2536] + C[C@@H](Oc1cc(-c2cnn(C3CCNCC3)c2)cnc1N)c1c(Cl)ccc(F)c1Cl [Crizotinib] (partner 1 µM)
# How it was run: as §1
# BI-2536 + Pemetrexed = compound: CC[C@@H]1C(=O)N(C)c2cnc(Nc3ccc(C(=O)NC4CCN(C)CC4)cc3OC)nc2N1C1CCCC1 [BI-2536] + Nc1nc2[nH]cc(CCc3ccc(C(=O)N[C@@H](CCC(=O)O)C(=O)O)cc3)c2c(=O)[nH]1 [Pemetrexed] (partner 0.2 µM)
# How it was run: as §1
Cell Line,relative viability ([1]; first compound 0.01 µM),relative viability ([1]; first compound 0.1 µM),relative viability ([1]; first compound 0.3162 µM),relative viability ([1]; first compound 1 µM),relative viability (BI-2536 + Navitoclax; first compound 0.01 µM),relative viability (BI-2536 + Navitoclax; first compound 0.03162 µM),relative viability (BI-2536 + Navitoclax; first compound 0.3162 µM),relative viability (BI-2536 + Navitoclax; first compound 1 µM),relative viability (BI-2536 + Crizotinib; first compound 0.01 µM),relative viability (BI-2536 + Crizotinib; first compound 0.03162 µM),relative viability (BI-2536 + Crizotinib; first compound 0.3162 µM),relative viability (BI-2536 + Crizotinib; first compound 1 µM),relative viability (BI-2536 + Pemetrexed; first compound 0.01 µM),relative viability (BI-2536 + Pemetrexed; first compound 0.03162 µM),relative viability (BI-2536 + Pemetrexed; first compound 0.1 µM),relative viability (BI-2536 + Pemetrexed; first compound 0.3162 µM),relative viability (BI-2536 + Pemetrexed; first compound 1 µM),relative viability ([1]; first compound 0.03162 µM),relative viability (BI-2536 + Navitoclax; first compound 0.1 µM),relative viability (BI-2536 + Crizotinib; first compound 0.1 µM)
EPLC-272H,0.278,0.281,0.229,0.229,1.13,0.999,0.0617,0.0715,0.901,0.577,0.0723,0.093,0.294,0.173,0.0902,0.106,0.0725,–,–,–
NCI-H1915,0.479,0.47,0.418,0.482,0.781,0.765,0.11,0.0514,0.931,0.549,0.116,0.108,0.507,0.427,0.347,0.147,0.0852,0.455,0.694,0.549
NCI-H596,0.868,0.832,0.921,1.04,0.997,1.21,0.19,0.184,0.948,1.05,0.493,0.443,0.528,0.491,0.487,0.277,0.29,1.07,0.978,0.938
NCI-H322M,0.486,0.496,0.44,0.534,1.3,1.29,0.608,0.333,0.992,0.721,0.346,0.308,0.607,0.542,0.639,0.454,0.363,0.509,1.2,0.92
NCI-H2228,0.243,0.341,0.213,0.422,1.03,0.999,0.0826,0.121,0.547,0.466,0.207,0.172,0.382,0.385,0.131,0.194,0.14,0.265,0.933,0.236
NCI-H647,0.315,0.423,0.257,0.325,1.05,0.883,0.0407,0.0778,1.15,0.418,0.113,0.115,0.179,0.148,0.113,0.0907,0.0929,0.283,0.378,0.425
SK-MES-1,0.938,0.876,0.937,0.922,1.21,1.37,0.126,0.139,0.997,1.01,0.212,0.18,0.912,0.887,0.66,0.205,0.197,0.999,1.14,0.86
NCI-H2170,0.688,0.69,0.527,0.812,0.614,0.561,0.167,0.187,1.09,1.13,0.244,0.288,0.285,0.254,0.183,0.161,0.163,0.708,0.367,0.611
NCI-H2085,0.802,0.812,0.825,0.855,1.04,1.13,0.208,0.272,0.895,0.751,0.254,0.307,0.961,1.01,0.664,0.172,0.243,0.79,0.704,0.578
SW 1573,0.168,0.238,0.265,0.21,1.04,1.05,0.0673,0.0547,0.774,0.905,0.17,0.126,0.753,0.516,0.149,0.124,0.0813,0.208,1.05,0.708
NCI-H441,0.825,0.635,0.619,0.721,0.705,0.449,0.152,0.178,0.503,0.393,0.154,0.133,0.287,0.242,0.195,0.148,0.13,0.659,0.152,0.218
LOU-NH91,0.688,0.628,0.576,0.741,0.673,0.53,0.316,0.261,0.697,0.671,0.325,0.307,0.38,0.39,0.284,0.26,0.336,0.674,0.648,0.719
NCI-H3122,0.389,0.366,0.365,0.465,1,0.991,0.233,0.241,0.294,0.272,0.182,0.199,0.212,0.171,0.159,0.129,0.121,0.425,0.525,0.242
NCI-H460,0.524,0.673,0.463,0.597,1.19,1.05,0.0095,0.0103,0.966,0.842,0.0109,0.0112,0.0637,0.0517,0.0606,0.0204,0.0163,0.529,0.0795,0.0283
NCI-H1734,0.29,0.28,0.261,0.287,0.746,0.629,0.102,0.113,0.644,0.548,0.204,0.158,0.39,0.36,0.279,0.211,0.188,0.271,0.636,0.35
LXF-289,0.172,0.181,0.165,0.2,0.949,0.858,0.064,0.0512,0.822,0.693,0.0566,0.0678,0.932,0.812,0.503,0.0709,0.0711,0.214,0.658,0.456
